In patent US10357514B2, “Treatment of cancer using anti-CD19 Chimeric Antigen Receptor” (The Trustees of the University of Pennsylvania, priority 2014, dated 2019):
Entries after “also recorded” stand apart in the source; their conditions may differ.

What was measured:
pneumococcal serotypes = assay: Antibody titers after pneumococcal vaccination (Pneumovax 23); type: in vivo, human; settings: 7 serotypes measured; all 3 RAD cohorts
Method: Elderly volunteers >=65 years of age were randomized to one of the 3 RAD001 treatment groups (50 subjects per arm) or placebo (20 subjects per arm). Subjects were treated with study drug for 6 weeks, given a 2 week break, and then received influenza (Aggrippal, Novartis) and pneumoccal (Pneumovax 23, Merck), vaccinations. Response to influenza vaccination was assessed by measuring the geometric mean titers (GMTs) by hemagglutination inhibition assay to the 3 influenza strains (H1N1, H3N2 and B influenza subtypes) in the influenza vaccine 4 weeks after vaccination. The primary endpoints of the study were (1) safety and tolerability and (2) a 1.2 fold increase in influenza titers as compared to placebo in 2/3 of the influenza vaccine strains 4 weeks after vaccination. This endpoint was chosen because a 1.2 fold increase in influenza titers is associated with a decrease in influenza illness post vaccination, and therefore is clinically relevant. […] The pneumococcal vaccine contains antigens from 23 pneumococcal serotypes. Antibody titers to 7 of the serotypes were measured in our subjects.

P70 S6K = assay: Inhibition of P70 S6K activity in HeLa cells in vitro; settings: Homo sapiens, read-out: % P70 S6K inhibition
[1] = Energy and exercise questionnaires one year after dosing; type: in vivo, human; settings: 0.5 mg daily cohort
[2] = Adverse event assessment in elderly volunteers, randomized placebo-controlled trial; settings: for Treatment-related AE incidence: Blood cholesterol increased / Treatment-related AE incidence: Conjunctivitis / Treatment-related AE incidence: Diarrhea / Treatment-related AE incidence: Dry mouth / Treatment-related AE incidence: Dyspepsia / Treatment-related AE incidence: Erythema / Treatment-related AE incidence: Fatigue / Treatment-related AE incidence: Headache / Treatment-related AE incidence: Insomnia / Treatment-related AE incidence: Limb discomfort / Treatment-related AE incidence: Low density lipoprotein increased / Treatment-related AE incidence: Mouth ulceration / Treatment-related AE incidence: Mucosal inflammation / Treatment-related AE incidence: Neutropenia / Treatment-related AE incidence: Oral pain / Treatment-related AE incidence: Paresthesia oral / Treatment-related AE incidence: Pruritus / Treatment-related AE incidence: Stomatitis / Treatment-related AE incidence: Thrombocytopenia / Treatment-related AE incidence: Tongue ulceration / Treatment-related AE incidence: Urinary tract infection / Treatment-related AEs: Patients with AE(s) / Treatment-related AEs: Total AE(s): N = 53
[3] = test system: PD-1 positive CD4 and CD8 T cells; assay: Immunophenotyping of PBMC by flow cytometry; type: in vivo, human
[4] = test system: 3 influenza vaccine strains; assay: Primary endpoint: HI GMT ratio relative to placebo in at least 2 out of 3 influenza vaccine strains; type: in vivo, human; settings: for primary endpoint (>=1.2-fold GMT increase relative to placebo in at least 2 of 3 strains): ITT population
Text: The primary analysis of geometric mean titer ratios was done using a normal Bayesian regression model with non-informative priors. This model was fitted to each antibody titer on the log scale. The primary outcome in each model was the Day 84 measurement. The Day 63 measurement was included in the outcome vector. The model fitted using SAS 9.2 proc mixed with the prior statement. The covariance structure of the matrix was considered as unstructured (option type=UN). A flat prior was used. For the secondary analysis of seroconversion rates, logistic regression was used.
The intention to treat population was defined as all subjects who received at least one full dose of study drug and who had no major protocol deviations impacting efficacy data. 199 out of the total of 218 subjects enrolled in the study were in the intention to treat population.
The ability of RAD001 to improve immune function in elderly volunteers was evaluated by measuring the serologic response to the 2012 seasonal influenza vaccine. The hemagglutination inhibition (HI) geometric mean titers (GMT) to each of the 3 influenza vaccine strains at baseline and 4 weeks after influenza vaccination are provided in Table 10. The primary analysis variable was the HI GMT ratio (4 weeks post vaccination/baseline). […] This endpoint was chosen because a 1.2-fold increase in the influenza GMT ratio induced by the MF-59 vaccine adjuvant was associated with a decrease in influenza illness (Iob, A et al. (2005) Epidemiol Infect 133:687-693).
Elderly volunteers >=65 years of age were randomized to one of the 3 RAD001 treatment groups (50 subjects per arm) or placebo (20 subjects per arm). […] Response to influenza vaccination was assessed by measuring the geometric mean titers (GMTs) by hemagglutination inhibition assay to the 3 influenza strains (H1N1, H3N2 and B influenza subtypes) in the influenza vaccine 4 weeks after vaccination. […] Antibody titers to 7 of the serotypes were measured in our subjects.

[5] = test system: PD-1-positive CD4 and CD8 and PD-1-negative CD4 T cells; assay: FACS analysis of PD-1 on T cells in PBMC samples of subjects given RAD001; type: in vivo, human
[6] = week 6, pooled cohort, adjusted for baseline PD-1
[7] = week 12, pooled cohort, adjusted for baseline PD-1
[8] = week 12, 0.5 mg/Day, 5 mg/Week and 20 mg/Week cohorts

## CO[C@H]1C[C@@H]2CC[C@@H](C)[C@@](O)(O2)C(=O)C(=O)N2CCCC[C@H]2C(=O)O[C@H]([C@H](C)C[C@@H]2CC[C@@H](OCCO)[C@H](OC)C2)CC(=O)[C@H](C)/C=C(\C)[C@@H](O)[C@@H](OC)C(=O)[C@H](C)C[C@H](C)/C=C/C=C/C=C/1C [RAD001, (1R,9S,12S,15R,16E,18R,19R,21R,23S,24E,26E,28E,30S,32S,35R)-1,18-dihydroxy-12-{(1R)-2-[(1S,3R,4R)-4-(2-hydroxyethoxy)-3-methoxycyclohexyl]-1-methylethyl}-19,30-dimethoxy-15,17,21,23,29,35-hexamethyl-11,36-dioxa-4-aza-tricyclo[30.3.1.04,9]hexatriaconta-16,24,26,28-tetraene-2,3,10,14,20-pentaone]
Pneumococcal serotypes
  pneumococcal antibody titers compared to placebo: 6/7 serotypes were increased
P70 S6K
  inhibition at 6 pM: 0%
  inhibition at 32 pM: 18%
  inhibition at 0.0008 µM: 62%
  inhibition at 0.004 µM: 90%
  inhibition at 0.02 µM: 95%
[1]
  self-reported energy and exercise ability compared to placebo: increased energy and exercise ability
[2]; 0.5 mg daily
  Treatment-related AE incidence: Blood cholesterol increased: 2 (3.8%) n (%)
  Treatment-related AE incidence: Conjunctivitis: 0 n (%)
  Treatment-related AE incidence: Diarrhea: 1 (1.9%) n (%)
  Treatment-related AE incidence: Dry mouth: 0 n (%)
  Treatment-related AE incidence: Dyspepsia: 0 n (%)
  Treatment-related AE incidence: Erythema: 0 n (%)
  Treatment-related AE incidence: Fatigue: 0 n (%)
  Treatment-related AE incidence: Headache: 0 n (%)
  Treatment-related AE incidence: Insomnia: 1 (1.9%) n (%)
  Treatment-related AE incidence: Limb discomfort: 0 n (%)
  Treatment-related AE incidence: Low density lipoprotein increased: 2 (3.8%) n (%)
  Treatment-related AE incidence: Mouth ulceration: 6 (11.3%) n (%)
  Treatment-related AE incidence: Mucosal inflammation: 0 n (%)
  Treatment-related AE incidence: Neutropenia: 0 n (%)
  Treatment-related AE incidence: Oral pain: 0 n (%)
  Treatment-related AE incidence: Paresthesia oral: 2 (3.8%) n (%)
  Treatment-related AE incidence: Pruritus: 0 n (%)
  Treatment-related AE incidence: Stomatitis: 0 n (%)
  Treatment-related AE incidence: Thrombocytopenia: 0 n (%)
  Treatment-related AE incidence: Tongue ulceration: 3 (5.7%) n (%)
  Treatment-related AE incidence: Urinary tract infection: 0 n (%)
  Treatment-related AEs: Patients with AE(s): 22 (41.5%) n (%)
  Treatment-related AEs: Total AE(s): 35 n (%)
[2]; 5 mg weekly
  Treatment-related AE incidence: Blood cholesterol increased: 2 (3.8%) n (%)
  Treatment-related AE incidence: Conjunctivitis: 2 (3.8%) n (%)
  Treatment-related AE incidence: Diarrhea: 4 (7.5%) n (%)
  Treatment-related AE incidence: Dry mouth: 0 n (%)
  Treatment-related AE incidence: Dyspepsia: 3 (5.7%) n (%)
  Treatment-related AE incidence: Erythema: 2 (3.8%) n (%)
  Treatment-related AE incidence: Fatigue: 2 (3.8%) n (%)
  Treatment-related AE incidence: Headache: 2 (3.8%) n (%)
  Treatment-related AE incidence: Insomnia: 2 (3.8%) n (%)
  Treatment-related AE incidence: Limb discomfort: 2 (3.8%) n (%)
  Treatment-related AE incidence: Low density lipoprotein increased: 1 (1.9%) n (%)
  Treatment-related AE incidence: Mouth ulceration: 2 (3.8%) n (%)
  Treatment-related AE incidence: Mucosal inflammation: 0 n (%)
  Treatment-related AE incidence: Neutropenia: 0 n (%)
  Treatment-related AE incidence: Oral pain: 2 (3.8%) n (%)
  Treatment-related AE incidence: Paresthesia oral: 0 n (%)
  Treatment-related AE incidence: Pruritus: 2 (3.8%) n (%)
  Treatment-related AE incidence: Stomatitis: 0 n (%)
  Treatment-related AE incidence: Thrombocytopenia: 0 n (%)
  Treatment-related AE incidence: Tongue ulceration: 1 (1.9%) n (%)
  Treatment-related AE incidence: Urinary tract infection: 0 n (%)
  Treatment-related AEs: Patients with AE(s): 20 (37.7%) n (%)
  Treatment-related AEs: Total AE(s): 46 n (%)
[2]; 20 mg weekly
  Treatment-related AE incidence: Blood cholesterol increased: 2 (3.8%) n (%)
  Treatment-related AE incidence: Conjunctivitis: 0 n (%)
  Treatment-related AE incidence: Diarrhea: 1 (1.9%) n (%)
  Treatment-related AE incidence: Dry mouth: 2 (3.8%) n (%)
  Treatment-related AE incidence: Dyspepsia: 2 (3.8%) n (%)
  Treatment-related AE incidence: Erythema: 0 n (%)
  Treatment-related AE incidence: Fatigue: 4 (7.5%) n (%)
  Treatment-related AE incidence: Headache: 9 (17.0%) n (%)
  Treatment-related AE incidence: Insomnia: 1 (1.9%) n (%)
  Treatment-related AE incidence: Limb discomfort: 0 n (%)
  Treatment-related AE incidence: Low density lipoprotein increased: 2 (3.8%) n (%)
  Treatment-related AE incidence: Mouth ulceration: 9 (17.0%) n (%)
  Treatment-related AE incidence: Mucosal inflammation: 2 (3.8%) n (%)
  Treatment-related AE incidence: Neutropenia: 3 (5.7%) n (%)
  Treatment-related AE incidence: Oral pain: 1 (1.9%) n (%)
  Treatment-related AE incidence: Paresthesia oral: 0 n (%)
  Treatment-related AE incidence: Pruritus: 1 (1.9%) n (%)
  Treatment-related AE incidence: Stomatitis: 2 (3.8%) n (%)
  Treatment-related AE incidence: Thrombocytopenia: 2 (3.8%) n (%)
  Treatment-related AE incidence: Tongue ulceration: 0 n (%)
  Treatment-related AE incidence: Urinary tract infection: 2 (3.8%) n (%)
  Treatment-related AEs: Patients with AE(s): 27 (50.9%) n (%)
  Treatment-related AEs: Total AE(s): 109 n (%)
[2]; 6 weeks, particularly the 0.5 mg daily and 5 mg weekly dosing regimens
  tolerability: well tolerated
[2]; all cohorts
  deaths during the study: No deaths
[2]; mouth ulcers, subject treated with 20 mg weekly
  severe AEs assessed as related to RAD001: one
5 mg weekly, lower limit of quantification 0.3 ng/ml
  average RAD001 trough level: below detection limits
Dosing regimens used in the immunization study
  trough level of study dosing regimens lower than approved transplant and oncology regimens: 3-20 fold
[3]; RAD001 cohorts
  percentage of PD-1 negative CD4 T cells compared to placebo: increased
[3]; week 6 and 12, all RAD001 cohorts
  percentage of CD4 PD-1 positive T cells: decreased from baseline
[3]; week 6 and 12, two lower dose RAD001 cohorts
  percentage of CD8 PD-1 positive cells: decreased from baseline
[4]; 0.5 mg daily or 5 mg weekly
  primary endpoint (>=1.2-fold GMT increase relative to placebo in at least 2 of 3 strains): met the GMT primary endpoint
[4]; 20 mg weekly
  primary endpoint (>=1.2-fold GMT increase relative to placebo in at least 2 of 3 strains): not higher dose (20 mg weekly) cohort met the primary endpoint; also recorded: unlike the 20 mg weekly dose, met the GMT primary endpoint
[4]; subjects with low baseline influenza titers (<=1:40)
  increase in titers in subgroup versus ITT population: greater RAD001-associated increase in titers
[5]; [6]
  decrease in PD-1+ CD4 T cells compared to placebo: 30.2%
  decrease in PD-1-positive CD8 T cells compared to placebo: 37.4%
[5]; [7]
  decrease in PD-1-positive CD4 T cells compared to placebo: 32.7%
  decrease in PD-1-positive CD8 T cells compared to placebo: 41.4%
[5]; [8]
  decrease in PD-1-positive CD4 T cells as compared to placebo: −37.1-−28.5%
  decrease in PD-1-positive CD8 T cells as compared to placebo: −43.3-−38.5%
  increase in PD-1-negative CD4 T cells as compared to placebo: 3.0-4.9%
